Molecular target: T1, CXCR4 (Homo sapiens, UniProt P61073)
T1 construct: a human T cell strain in which CXCR4 is known to be expressed; endogenous in cells; host or cells: CEM cells (human T cell strain)
Test: Inhibition of binding of human 125I-SDF-1 to CEM cells
Settings: 125I-SDF-1, human T cell strain CEM cells, 4° C., 60 minutes
From the text: Specifically, as a system of screening a compound that inhibits the binding between SDF-1 and CXCR4, for example a system of measuring the binding between iodine-labeled SDF-1 and a human T cell strain in which CXCR4 is known to be expressed is operable. The identical idea is possible since macrophage (R5) HIV and RANTES, MIP-1α, and MIP-1β all bind to CCR5.
Study for Inhibition of Binding Human SDF-1 to CEM Cells
To human T cell strain CEM cells in a binding buffer (containing HEPES and BSA), the test compound and ^125I-SDF-1 (NEN) were added and the mixture was incubated at 4° C. for 60 minutes. The reacted CEM cells were rapidly filtrated with a GF/B membrane filter plate (Packard) to adsorb. The plate was washed with PBS three times and then dried. Microscint+20 (Packard) was added thereto. An amount of the radioactivity bound to the CEM cells was measured using Top Count (Packard) and inhibition (%) of the test compound was calculated according to the following equation: Inhibition={(Et−Ea)/(Et−Ec)}×100
Et: amount of radioactivity when the test compound is not added,
Ec: amount of radioactivity when non-radioactive SDF-1 (Pepro Tech) is added in an amount of 1000 times as much as ^125I-SDF-1 as a test compound, and
Ea: amount of radioactivity when the test compound is added.

T1 sequence (P61073 whole entry): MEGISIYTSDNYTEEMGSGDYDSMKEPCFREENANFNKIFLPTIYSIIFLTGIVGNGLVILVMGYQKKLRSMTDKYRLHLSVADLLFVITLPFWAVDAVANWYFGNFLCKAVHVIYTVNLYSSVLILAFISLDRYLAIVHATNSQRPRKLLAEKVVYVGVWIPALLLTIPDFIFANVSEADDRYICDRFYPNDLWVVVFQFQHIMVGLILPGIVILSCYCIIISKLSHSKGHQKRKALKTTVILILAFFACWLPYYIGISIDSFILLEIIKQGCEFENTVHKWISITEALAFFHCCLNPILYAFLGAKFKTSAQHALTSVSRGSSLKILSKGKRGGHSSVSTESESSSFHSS

With `Cc1ccsc1CN1CCC2(CC1)CCN(Cc1ccc(C(=O)C(Cc3ncc[nH]3)Cc3ncc[nH]3)cc1)C2` [compound 14, 3-(1H-imidazol-2-yl)-2-(1H-imidazol-2-ylmethyl)-1-[4-({8-[(3-methyl-2-thienyl)methyl]-2,8-diazaspiro[4.5]dec-2-yl}methyl)phenyl]propan-1-one] the IC50 was 11 nM.
